Laboratory results from US9365572B2, “PI3K and/or mTOR inhibitor” (XUANZHU PHARMA CO., LTD., priority 2012, dated 2016).

Test system: kinases listed in Table 3
Experiment: Kinase selectivity, whole panel of Table 3
Format: biochemical
Conditions: summary in words
Protocol: Object: In this assay, the inhibitory activity of the test substance on the kinases listed in Table 3 was determined, and therefore the selectivity of the present compound was determined.
Except for the BRAF V600E kinase in Table 3, the Mobility shift assay was used for other kinases.
• 1.1 1-fold kinase buffer without MnCl2: 50 mM HEPES, pH 7.5, 0.0015% Brij-35, 10 mM MgCl2, 2 mM DTT. • 1.2 1-fold kinase buffer with MnCl2: 50 mM HEPES, pH 7.5, 0.0015% Brij-35, 10 mM MgCl2, 10 mM MnCl2, 2 mM DTT. • 1.3 Termination solution: 100 mM HEPES, pH 7.5, 0.0015% Brij-35, 0.2% Coating Reagent#3, 50 mM EDTA. • 1.4 2.5-fold kinase solution: The kinase was added to the 1-fold kinase buffer to form a 2.5-fold kinase solution. • 1.5 2.5-fold substrate solution: FAM fluorescence-labelled polypeptide and ATP were added to the 1-fold kinase buffer to form a 2.5-fold substrate solution. 2. Preparation of 5-fold compound
The final test concentration of the compound was 10 μM at maximum. Firstly, a 50-fold concentration (i.e. 500 μM) was prepared with 100% DMSO. The compound was diluted with 100% DMSO by 5 folds at 5 concentrations (successively 500 μM, 100 μM, 20 μM, 4 μM, and 0.8 μM). […]
• 3.1 To the 384-well reaction plate was added 5-fold compound dissolved in 10% DMSO at 5 μl/well. • 3.2 To the 384-well reaction plate was added 2.5-fold kinase solution at 10 μl/well. […] The conversion was read from Caliper. […]

Nc1ccc(-c2ccc3ncc4c(=O)[nH]c(=O)n(-c5cccc(C(F)(F)F)c5)c4c3n2)cn1 [Compound 5, 9-(6-aminopyridin-3-yl)-1-(3-(trifluoromethyl)phenyl)pyrimido[5,4-c][1,5]naphthyridine-2,4(1H,3H)-dione]
inhibitory activity for the kinases listed in Table 3: no inhibitory activity
